Measured values: PubChem BioAssay AID248 (DTP/NCI, 2004)
Several values for one entry are separate records, joined by “and”; a condition that tells them apart may be missing. Identical values can stand only once. Toxic doses and inconclusive results are not listed. Cut-off read from the data, not from the text of the source: active = T/C of 150% or more; inactive = T/C below 125%.

Test system: L1210 leukemia ip in BDF1 mice, survival T/C
Experiment: NCI In Vivo Anticancer Drug Screen. Data for tumor model L1210 Leukemia (intraperitoneal) in B6D2F1 (BDF1) mice
Settings: endpoint: mean survival time, higher = longer survival
Method in brief: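 Each compound was tested against a transplantable tumor grown in mice. The endpoint was survival, with treated animals benchmarked against vehicle controls as a simple ratio.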

[1] = dose: 50.0 mg/kg/injection, schedule: Q01DX001 (ip), vehicle: saline
[2] = dose: 100.0 mg/kg/injection, schedule: Q01DX001 (ip), vehicle: saline
[3] = dose: 200.0 mg/kg/injection, schedule: Q01DX001 (ip), vehicle: saline
[4] = dose: 100.0 mg/kg/injection, schedule: Q01DX009 (ip), vehicle: Klucel (hydroxypropylcellulose) (HPC)
[5] = dose: 100.0 mg/kg/injection, schedule: Q04DX003 (ip), vehicle: Klucel (hydroxypropylcellulose) (HPC)
[6] = dose: 200.0 mg/kg/injection, schedule: Q01DX009 (ip), vehicle: Klucel (hydroxypropylcellulose) (HPC)
[7] = dose: 200.0 mg/kg/injection, schedule: Q04DX003 (ip), vehicle: Klucel (hydroxypropylcellulose) (HPC)
[8] = dose: 400.0 mg/kg/injection, schedule: Q01DX009 (ip), vehicle: Klucel (hydroxypropylcellulose) (HPC)
[9] = dose: 400.0 mg/kg/injection, schedule: Q04DX003 (ip), vehicle: Klucel (hydroxypropylcellulose) (HPC)
[10] = dose: 100.0 mg/kg/injection, schedule: Q01DX001 (ip), vehicle: Klucel (hydroxypropylcellulose) (HPC)
[11] = dose: 200.0 mg/kg/injection, schedule: Q01DX001 (ip), vehicle: Klucel (hydroxypropylcellulose) (HPC)
[12] = dose: 400.0 mg/kg/injection, schedule: Q01DX001 (ip), vehicle: Klucel (hydroxypropylcellulose) (HPC)
[13] = dose: 100.0 mg/kg/injection, schedule: Q04DX003 (ip), vehicle: saline
[14] = dose: 200.0 mg/kg/injection, schedule: Q04DX003 (ip), vehicle: saline
[15] = dose: 400.0 mg/kg/injection, schedule: Q04DX003 (ip), vehicle: saline
[16] = dose: 100.0 mg/kg/injection, schedule: Q01DX009 (ip), vehicle: saline
[17] = dose: 200.0 mg/kg/injection, schedule: Q01DX009 (ip), vehicle: saline
[18] = dose: 400.0 mg/kg/injection, schedule: Q01DX009 (ip), vehicle: saline

Measured: T/C

CCN(CC)CCCC(C)Nc1cc(/C=C/c2ccc(Cl)cc2)nc2ccc(N(C)C)cc12 (stereo not drawn)
inactive: dose: 3.12 mg/kg/injection, schedule: Q01DX009 (ip), vehicle: saline with Tween-80 95 % of control | dose: 6.25 mg/kg/injection, schedule: Q01DX009 (ip), vehicle: saline with Tween-80 97 % of control | dose: 12.5 mg/kg/injection, schedule: Q01DX009 (ip), vehicle: saline with Tween-80 95 % of control and 98 % of control

O=[N+]([O-])c1ccc(O)cc1/C=N/Nc1nnc(N/N=C/c2cc(O)ccc2[N+](=O)[O-])c2ccccc12
inactive: [1] 98 % of control | [2] 98 % of control | [3] 98 % of control | dose: 400.0 mg/kg/injection, schedule: Q01DX001 (ip), vehicle: saline 102 % of control

Nc1ccc(C(=O)O)cn1
inactive: [1] 96 % of control | [2] 106 % of control | [3] 100 % of control

Cc1c(Cl)cccc1NC(=O)c1ccccc1
inactive: [4] 93 % of control | [5] 91 % of control | [6] 96 % of control | [7] 106 % of control | [8] 100 % of control | [9] 98 % of control

O=C1CN=C(c2ccccn2)c2cc(Br)ccc2N1
inactive: dose: 3.1 mg/kg/injection, schedule: Q03HX024 (ip), vehicle: Klucel (hydroxypropylcellulose) (HPC) 98 % of control | dose: 6.2 mg/kg/injection, schedule: Q03HX024 (ip), vehicle: Klucel (hydroxypropylcellulose) (HPC) 100 % of control | dose: 12.5 mg/kg/injection, schedule: Q03HX024 (ip), vehicle: Klucel (hydroxypropylcellulose) (HPC) 98 % of control | dose: 25.0 mg/kg/injection, schedule: Q03HX024 (ip), vehicle: Klucel (hydroxypropylcellulose) (HPC) 94 % of control | dose: 50.0 mg/kg/injection, schedule: Q03HX024 (ip), vehicle: Klucel (hydroxypropylcellulose) (HPC) 97 % of control | [10] 96 % of control | [4] 94 % of control | dose: 100.0 mg/kg/injection, schedule: Q04DX002 (ip), vehicle: Klucel (hydroxypropylcellulose) (HPC) 101 % of control and 109 % of control | [5] 101 % of control | dose: 119.0 mg/kg/injection, schedule: Q01DX001 (ip), vehicle: Klucel (hydroxypropylcellulose) (HPC) 98 % of control | dose: 178.0 mg/kg/injection, schedule: Q01DX001 (ip), vehicle: Klucel (hydroxypropylcellulose) (HPC) 98 % of control | [11] 93 % of control | [6] 106 % of control | dose: 200.0 mg/kg/injection, schedule: Q04DX002 (ip), vehicle: Klucel (hydroxypropylcellulose) (HPC) 93 % of control and 98 % of control | [7] 97 % of control | dose: 266.0 mg/kg/injection, schedule: Q01DX001 (ip), vehicle: Klucel (hydroxypropylcellulose) (HPC) 89 % of control | [12] 96 % of control | [8] 96 % of control | dose: 400.0 mg/kg/injection, schedule: Q04DX002 (ip), vehicle: Klucel (hydroxypropylcellulose) (HPC) 92 % of control | [9] 101 % of control | dose: 600.0 mg/kg/injection, schedule: Q01DX001 (ip), vehicle: Klucel (hydroxypropylcellulose) (HPC) 106 % of control

CCOC(CCc1cnc[nH]c1=O)OCC
inactive: [13] 106 % of control | [14] 97 % of control | [15] 93 % of control

NC(=O)C(=O)OCc1ccccc1
inactive: dose: 100.0 mg/kg/injection, schedule: Q01DX001 (ip), vehicle: steriod suspending solution 105 % of control | dose: 200.0 mg/kg/injection, schedule: Q01DX001 (ip), vehicle: steriod suspending solution 97 % of control | dose: 400.0 mg/kg/injection, schedule: Q01DX001 (ip), vehicle: steriod suspending solution 94 % of control

CCOC(=O)CCN1CCCCC1
inactive: [16] 101 % of control | [13] 93 % of control | [17] 98 % of control | [14] 97 % of control | [18] 104 % of control | [15] 103 % of control

CC(C)(O)C(Cl)(Cl)Cl
inactive: [5] 101 % of control | [13] 98 % of control | [7] 95 % of control | [14] 100 % of control

C#CCSP(=O)(O)O
inactive: dose: 25.0 mg/kg/injection, schedule: Q01DX009 (ip), vehicle: saline with Tween-80 103 % of control | dose: 50.0 mg/kg/injection, schedule: Q01DX009 (ip), vehicle: saline with Tween-80 103 % of control

CN=C(NC)c1ccc(NC(=O)c2cc(C(=O)Nc3ccc(C(=NC)NC)cc3)cc([N+](=O)[O-])c2)cc1
inactive: dose: 2.0 mg/kg/injection, schedule: Q01DX Z (ip), vehicle: water 97 % of control | dose: 4.0 mg/kg/injection, schedule: Q01DX Z (ip), vehicle: water 100 % of control | dose: 7.5 mg/kg/injection, schedule: Q01DX Z (ip), vehicle: saline 100 % of control | dose: 7.5 mg/kg/injection, schedule: Q01DX Z (ip), vehicle: water 112 % of control | dose: 15.0 mg/kg/injection, schedule: Q01DX Z (ip), vehicle: saline 96 % of control and 110 % of control | dose: 15.0 mg/kg/injection, schedule: Q01DX Z (ip), vehicle: water 108 % of control

CCOC(=O)CCN(CC)C(C)=O
inactive: [16] 93 % of control | dose: 100.0 mg/kg/injection, schedule: Q04DX003 (ip), vehicle: saline sonified 101 % of control | [17] 93 % of control | dose: 200.0 mg/kg/injection, schedule: Q04DX003 (ip), vehicle: saline sonified 95 % of control | [18] 93 % of control | dose: 400.0 mg/kg/injection, schedule: Q04DX003 (ip), vehicle: saline sonified 95 % of control

O=[As](O)(O)c1ccc(Cl)cc1C(F)(F)F
inactive: dose: 6.25 mg/kg/injection, schedule: Q04DX003 (ip), vehicle: Klucel (hydroxypropylcellulose) (HPC) 97 % of control | dose: 12.5 mg/kg/injection, schedule: Q04DX003 (ip), vehicle: Klucel (hydroxypropylcellulose) (HPC) 100 % of control | dose: 25.0 mg/kg/injection, schedule: Q04DX003 (ip), vehicle: Klucel (hydroxypropylcellulose) (HPC) 101 % of control and 103 % of control | [5] 101 % of control | [7] 103 % of control

C1CC[N-]CC1.Oc1ccccc1C=NCCN=Cc1ccccc1O.[Co]
inactive: dose: 6.25 mg/kg/injection, schedule: Q04DX002 (ip), vehicle: saline with Tween-80 90 % of control

C/C(CC(c1ccccc1)N1CCc2ccccc2C1)=N/O (stereo not drawn)
inactive: dose: 100.0 mg/kg/injection, schedule: Q01DX009 (ip), vehicle: saline sonified 94 % of control | [13] 105 % of control | dose: 200.0 mg/kg/injection, schedule: Q01DX009 (ip), vehicle: saline sonified 94 % of control | [14] 104 % of control | dose: 400.0 mg/kg/injection, schedule: Q01DX009 (ip), vehicle: saline sonified 90 % of control | [15] 112 % of control

CC(=O)OC(C)CC[P+](c1ccccc1)(c1ccccc1)c1ccccc1 (stereo not drawn)
inactive: dose: 75.0 mg/kg/injection, schedule: Q01DX001 (ip), vehicle: other 104 % of control | dose: 150.0 mg/kg/injection, schedule: Q01DX001 (ip), vehicle: other 106 % of control

CC1CC(=O)NN1C(=S)Nc1ccccc1 (stereo not drawn)
inactive: dose: 100.0 mg/kg/injection, schedule: Q04DX003 (ip), vehicle: saline with Tween-80 102 % of control | dose: 200.0 mg/kg/injection, schedule: Q04DX003 (ip), vehicle: saline with Tween-80 98 % of control | dose: 400.0 mg/kg/injection, schedule: Q04DX003 (ip), vehicle: saline with Tween-80 100 % of control

CCOC(=O)NNOC(=O)CC
inactive: dose: 100.0 mg/kg/injection, schedule: Q01DX001 (ip), vehicle: saline with Tween-80 92 % of control | dose: 200.0 mg/kg/injection, schedule: Q01DX001 (ip), vehicle: saline with Tween-80 95 % of control

O=C1c2cc(Cl)ccc2-c2c(Cl)cc(Cl)cc21
inactive: dose: 100.0 mg/kg/injection, schedule: Q01DX001 (ip), vehicle: acetone 89 % of control | [13] 87 % of control | dose: 200.0 mg/kg/injection, schedule: Q01DX001 (ip), vehicle: acetone 89 % of control | [14] 96 % of control | dose: 400.0 mg/kg/injection, schedule: Q01DX001 (ip), vehicle: acetone 95 % of control | [15] 86 % of control

O=C1c2ccccc2C(=O)N1C1C=CC=CC=C1
inactive: [10] 95 % of control | [5] 91 % of control | [11] 93 % of control | [7] 91 % of control | [12] 90 % of control | [9] 93 % of control
